Test results published in patent US5166348A, “Bornyl and isobornyl esters of carboxylic acids of condensed tetrahydroquinoxalines” (Uralsky politekhnichesky institut, priority 1989, dated 1992).

System: influenza virus strains resistant to remantadine
Type: in vivo
Conditions: chick embryos, 1 mg/embryo

CC1=C(C(=O)OC2CC3CCC2(C)C3(C)C)C2Nc3ccccc3N(C)C2O1 (stereo not shown) [compound 1a, isobornyl ester of 2,9-dimethyl-3a,4,9,9a-tetrahydrofuro [2,3-b] quinoxaline-3-carboxylic acid]
sensitivity of strains resistant or only slightly sensitive to remantadine (in words): Some virus strains that are resistant or only slightly sensitive to remantadine were sensitive to the proposed compound 1a
